Assay results taken from ChEMBL document CHEMBL1201862, “PubChem BioAssay data set” (2004).
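Dose response: 5 concentrations. Exposure: 48 h. Format: 96-well plates. Endpoint: linear interpolation; highest concentration if not reached. The concentration for 50% growth inhibition is given as GI50.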 Activity calls are given as the source filed them. Cut-off read from the data, not from the text of the source: active = GI50 up to about 1.1 µM and inactive = higher.

Experiments:
Assay in all cases: NCI tumour cell line growth inhibition, 48 h
DLD-1 = tested on: DLD-1
DMS-114 = tested on: DMS-114
DMS-273 = tested on: DMS-273
HOP-18 = tested on: HOP-18
LXFL 529 = tested on: LXFL 529
M19-MEL = tested on: M19-MEL
RXF 631 = tested on: RXF 631
XF498 = tested on: XF498
SNB-78 = tested on: SNB-78

Compound	GI50 (DLD-1)	GI50 (DMS-114)	GI50 (DMS-273)	GI50 (HOP-18)	GI50 (LXFL 529)	GI50 (M19-MEL)	GI50 (RXF 631)	GI50 (XF498)	GI50 (SNB-78)
COc1ccccc1NC(=O)C1=C(C)NC(C)=C(C(=O)Nc2ccccc2OC)C1c1ccccc1Cl	> 100 µM (inactive)	45.5 µM (inactive)	> 100 µM (inactive)	> 100 µM (inactive)	> 100 µM (inactive)	> 100 µM (inactive)	> 100 µM (inactive)	37.7 µM (inactive)	–
CC(C)(C)C1C=C(Sc2ccccc2)C(=O)O1 (stereo not given)	42.5 µM (inactive)	32.8 µM (inactive)	40.7 µM (inactive)	75.9 µM (inactive)	34.8 µM (inactive)	48.9 µM (inactive)	–	–	63 µM (inactive)
CC(=O)OC12COC1CC(O)C1(C)C(=O)C(O)C3=C(C)C(O)CC(O)(C(OC(=O)c4ccccc4)C21)C3(C)C (stereo not given)	–	6.97 µM (inactive)	0.731 µM (active)	–	–	7.67 µM (inactive)	–	2.36 µM (inactive)	> 100 µM (inactive)
O=C1C=C(c2c(O)ccc3ccccc23)c2ccccc2C1=O	3.76 µM (inactive)	2.04 µM (inactive)	3.46 µM (inactive)	8.81 µM (inactive)	1.59 µM (inactive)	1.64 µM (inactive)	6.56 µM (inactive)	–	2.26 µM (inactive)
COc1ccc(N2C(=O)/C(=C(\C)c3cc4ccccc4oc3=O)N=C2c2cc([N+](=O)[O-])ccc2Cl)cc1	54.7 µM (inactive)	24.2 µM (inactive)	–	85.1 µM (inactive)	29.9 µM (inactive)	42.1 µM (inactive)	36.6 µM (inactive)	–	24.4 µM (inactive)
CCN(CC)CCCC(C)Nc1c2ccc(Cl)cc2nc2cc(Cl)ccc12 (stereo not given)	2.94 µM (inactive)	4.41 µM (inactive)	3.32 µM (inactive)	5.42 µM (inactive)	–	4.85 µM (inactive)	–	4.99 µM (inactive)	9.82 µM (inactive)
CCOC(=O)C1=C(O)C(=O)c2ccccc2C1=O	> 100 µM (inactive)	> 100 µM (inactive)	> 100 µM (inactive)	> 100 µM (inactive)	–	22.2 µM (inactive)	–	> 100 µM (inactive)	> 100 µM (inactive)
Cc1c(C)c2ccc(OC(C)C(=O)O)cc2oc1=O (stereo not given)	> 100 µM (inactive)	> 100 µM (inactive)	–	> 100 µM (inactive)	> 100 µM (inactive)	> 100 µM (inactive)	> 100 µM (inactive)	35 µM (inactive)	> 100 µM (inactive)
Clc1cccc(N2CCN(CCCN3CCc4c([nH]c5ccccc45)C3c3cccnc3)CC2)c1 (stereo not given)	11.2 µM (inactive)	5.52 µM (inactive)	5.98 µM (inactive)	14.3 µM (inactive)	6.52 µM (inactive)	10.5 µM (inactive)	3.63 µM (inactive)	4.58 µM (inactive)	5.69 µM (inactive)
O=C1C(c2ccccc2)=C(c2ccccc2)C(c2ccccc2)/C1=C1\C(=O)C(c2ccccc2)=C(c2ccccc2)C1c1ccccc1 (stereo not given)	> 100 µM (inactive)	> 100 µM (inactive)	> 100 µM (inactive)	> 100 µM (inactive)	> 100 µM (inactive)	> 100 µM (inactive)	–	–	> 100 µM (inactive)
COc1cccc2c1C(=O)c1c(O)c3c(c(O)c1C2=O)C[C@@](O)(C(=O)CN1CCOCC1)C[C@@H]3OC1CC(N)C(O)C(C)O1 (stereo not given in full)	7.71 µM (inactive)	3.52 µM (inactive)	2.23 µM (inactive)	0.000832 µM (active)	–	3.39 µM (inactive)	–	2.45 µM (inactive)	–
C/C(=N/NS(=O)(=O)c1c(C)cc(C)cc1C)c1cccc[n+]1[O-]	> 100 µM (inactive)	> 100 µM (inactive)	> 100 µM (inactive)	> 100 µM (inactive)	> 100 µM (inactive)	> 100 µM (inactive)	–	> 100 µM (inactive)	> 100 µM (inactive)
COc1ccc(/N=N/C(C(=O)c2ccccc2)C(=O)c2ccccc2)cc1	23.9 µM (inactive)	19.4 µM (inactive)	16.1 µM (inactive)	–	24.8 µM (inactive)	–	31.4 µM (inactive)	18.2 µM (inactive)	–
COC(=O)/C(=N\Nc1nnc(C)n1N)C(C#N)c1ccccc1 (stereo not given)	31.1 µM (inactive)	21.5 µM (inactive)	> 100 µM (inactive)	7.05 µM (inactive)	64.9 µM (inactive)	18.5 µM (inactive)	83.6 µM (inactive)	> 100 µM (inactive)	> 100 µM (inactive)
O=C1C2=C(C3=NCCc4c[nH]c1c43)c1c(cc(Br)c(O)c1Br)CCN2	8.2 µM (inactive)	2.96 µM (inactive)	12.6 µM (inactive)	20 µM (inactive)	–	2.79 µM (inactive)	–	13.9 µM (inactive)	5.64 µM (inactive)
Clc1ccc(-c2c(C3=NCCCN3)nnn2-c2ccccc2)cc1	75 µM (inactive)	47.2 µM (inactive)	> 100 µM (inactive)	> 100 µM (inactive)	> 100 µM (inactive)	69.5 µM (inactive)	75.3 µM (inactive)	> 100 µM (inactive)	> 100 µM (inactive)
CN1COCN/C1=N/C#N	> 100 µM (inactive)	> 100 µM (inactive)	–	> 100 µM (inactive)	> 100 µM (inactive)	> 100 µM (inactive)	> 100 µM (inactive)	> 100 µM (inactive)	> 100 µM (inactive)
CC1=NCCc2cc3[nH]c4ccccc4c3cc21	19.2 µM (inactive)	11.6 µM (inactive)	13.6 µM (inactive)	18.7 µM (inactive)	–	14.9 µM (inactive)	–	10.9 µM (inactive)	28.2 µM (inactive)
Cc1ccc(C(=O)N2c3ccccc3N(C)n3cccc3C2CC(=O)O)cc1 (stereo not given)	> 100 µM (inactive)	> 100 µM (inactive)	> 100 µM (inactive)	–	> 100 µM (inactive)	> 100 µM (inactive)	–	> 100 µM (inactive)	> 100 µM (inactive)
CC(=O)Nc1ccc(SC#N)c2c(NC(C)=O)cccc12	71.6 µM (inactive)	43.1 µM (inactive)	> 100 µM (inactive)	45.2 µM (inactive)	28 µM (inactive)	> 100 µM (inactive)	> 82.8 µM (inactive)	–	99.3 µM (inactive)
C[C@]12CCC(=O)C(O)=C1CCC2=O	> 100 µM (inactive)	–	> 100 µM (inactive)	> 100 µM (inactive)	> 100 µM (inactive)	> 100 µM (inactive)	–	–	> 100 µM (inactive)
CCOC(=O)C1(Br)S(=O)(=O)OCCOS1(=O)=O	> 100 µM (inactive)	> 100 µM (inactive)	> 100 µM (inactive)	–	–	> 100 µM (inactive)	–	> 100 µM (inactive)	> 100 µM (inactive)
O=C1C[S+]([O-])c2ccccc2N1 (stereo not given)	> 100 µM (inactive)	–	16.8 µM (inactive)	> 100 µM (inactive)	> 100 µM (inactive)	> 100 µM (inactive)	> 100 µM (inactive)	> 100 µM (inactive)	> 100 µM (inactive)
O=C(O)C12CC3CC(CC(F)(C3)C1)C2	> 100 µM (inactive)	> 100 µM (inactive)	> 100 µM (inactive)	–	> 100 µM (inactive)	> 100 µM (inactive)	–	> 100 µM (inactive)	32.2 µM (inactive)
CCOC(=N)CC(=O)Nc1cccc(C)c1C	> 100 µM (inactive)	–	> 100 µM (inactive)	–	> 100 µM (inactive)	> 100 µM (inactive)	> 100 µM (inactive)	> 100 µM (inactive)	40.3 µM (inactive)
Cc1cccc(C)c1N1C(=O)C(=O)C(c2nc3ccccc3s2)/C(=N/NC(=O)c2ccccc2O)C1=O (stereo not given)	22.8 µM (inactive)	11.6 µM (inactive)	4.74 µM (inactive)	21.7 µM (inactive)	10.2 µM (inactive)	13.1 µM (inactive)	24.5 µM (inactive)	12.4 µM (inactive)	5.45 µM (inactive)
C=C1C(=O)[C@@]23CC[C@H]4[C@@](C)(CCC[C@@]4(C)C(=O)OC)[C@@H]2CC[C@]1(O)C3	0.32 µM (active)	–	1.67 µM (inactive)	2.07 µM (inactive)	–	1.56 µM (inactive)	–	1.75 µM (inactive)	–
CC1CCCC2(O1)OC1CC(=O)OC1C1=C2C(=O)c2ccccc2C1=O (stereo not given)	–	1.75 µM (inactive)	1.8 µM (inactive)	–	1.4 µM (inactive)	2.72 µM (inactive)	–	2.72 µM (inactive)	2.05 µM (inactive)
C/C=C1\C[C@@H]2C(OC)Nc3cc(O)c(OC)cc3C(=O)N2C1 (stereo not given in full)	0.00319 µM (active)	0.00118 µM (active)	0.00129 µM (active)	0.0213 µM (active)	0.00301 µM (active)	0.00612 µM (active)	0.00859 µM (active)	–	–
CCCCCCCCCCCCCCCC(=O)N[C@H]1CCc2cc(OC)c(OC)c(OC)c2-c2ccc(SC)c(=O)cc21	0.365 µM (active)	–	–	0.933 µM (active)	0.486 µM (active)	0.458 µM (active)	–	0.769 µM (active)	0.492 µM (active)
